Measurements: ChEMBL document CHEMBL2177034, “Inhibition of hypoxia inducible factor-2 transcription: isolation of active modulators from marine sponges” (J Nat Prod, 2012)
One block for each compound: values may come before it. Activity calls are given as the source filed them. No cut-off for these calls is given here.

Experiments:
[1] = Cytotoxicity against human RCC4 cells expressing HIF2alpha and HIF1alpha after 2 days by XTT assay; type: functional, cell-based; settings: RCC4, 48 h
[2] = molecular target: Hypoxia-inducible factor 1-alpha (Homo sapiens) (UniProt Q16665); assay: Inhibition of HIF1alpha in human SK-RC-28 cells assessed as reduction in carbonic anhydrase expression at 20 uM after 48 hrs by RT-PCR analysis; type: cell-based
[3] = molecular target: T1, Endothelial PAS domain-containing protein 1 (Homo sapiens, UniProt Q99814); assay: Inhibition of HIF2alpha in human 786-0 cells assessed as reduction in VEGFA mRNA expression at 20 uM after 48 hrs by RT-PCR analysis; type: cell-based
786-0 [4] = assay: Downregulation of HIF1alpha mRNA expression in human 786-0 cells at 20 uM after 48 hrs by RT-PCR analysis; type: functional, cell-based
[5] = molecular target: T1, Endothelial PAS domain-containing protein 1; assay: Inhibition of HIF2alpha in human RCC4 cells coexpressing HIF1alpha assessed as reduction in CCND1 mRNA expression at 20 uM after 48 hrs by RT-PCR analysis; type: cell-based
[6] = (§1) Downregulation of HIF1alpha mRNA expression in human RCC4 cells at 20 uM after 48 hrs by RT-PCR analysis; type: functional, cell-based
[7] = Cytotoxicity against human SK-RC-28 cells expressing HIF1alpha after 2 days by XTT assay; type: functional, cell-based; settings: 48 h
786-0 [8] = assay: Downregulation of actin mRNA expression in human […] at 20 uM after 48 hrs by RT-PCr analysis; type: ADME, cell-based; settings: 786-0, 48 h
[9] = Downregulation of HIF2alpha mRNA expression in human SK-RC-28 cells at 20 uM after 48 hrs by RT-PCR analysis; type: functional, cell-based
[10] = (§2) Downregulation of HIF2alpha mRNA expression in human RCC4 cells at 20 uM after 48 hrs by RT-PCR analysis; type: functional, cell-based
[11] = molecular target: T1, Endothelial PAS domain-containing protein 1; assay: Inhibition of HIF2alpha in human 786-0 cells assessed as reduction in CCND1 mRNA expression at 20 uM after 48 hrs by RT-PCR analysis; type: cell-based
[12] = Downregulation of GLUT1 mRNA expression in human SK-RC-28 cells at 20 uM after 48 hrs by RT-PCR analysis; type: functional, cell-based
[13] = Downregulation of CCND1 mRNA expression in human SK-RC-28 cells at 20 uM after 48 hrs by RT-PCR analysis; type: functional, cell-based
[14] = Downregulation of actin mRNA expression in human SK-RC-28 cells expressing HIF2alpha at 20 uM after 48 hrs by RT-PCr analysis; type: ADME, cell-based
[15] = molecular target: Hypoxia-inducible factor 1-alpha (Homo sapiens) (UniProt Q16665); assay: Inhibition of HIF1alpha in human SK-RC-28 cells assessed as reduction in VEGFA expression at 20 uM after 48 hrs by RT-PCR analysis; type: cell-based
786-0 [16] = assay: Downregulation of HIF2alpha mRNA expression in human 786-0 cells at 20 uM after 48 hrs by RT-PCR analysis; type: functional, cell-based
[17] = molecular target: T1, Endothelial PAS domain-containing protein 1; assay: Inhibition of HIF2alpha in human RCC4 cells coexpressing HIF1alpha assessed as reduction in GLUT1 mRNA expression at 20 uM after 48 hrs by RT-PCR analysis; type: cell-based
[18] = as §2; type: functional, cell-based; remark: listed apart in the source
786-0 [19] = assay: Cytotoxicity against human 786-0 cells expressing HIF2alpha after 2 days by XTT assay; type: functional, cell-based; settings: 786-0, 48 h
[20] = Downregulation of TGFalpha mRNA expression in human SK-RC-28 cells at 20 uM after 48 hrs by RT-PCR analysis; type: functional, cell-based
[21] = molecular target: T1, Endothelial PAS domain-containing protein 1; assay: Inhibition of HIF2alpha in human RCC4 cells coexpressing HIF1alpha assessed as reduction in TGFalpha mRNA expression at 20 uM after 48 hrs by RT-PCR analysis; type: cell-based
786-0 [22] = assay: Inhibition of total protein expression in serum deprived human 786-0 cells at 20 uM after 48 hrs relative to control; type: cell-based; settings: 786-0, 48 h, 20 µM
[23] = Downregulation of actin mRNA expression in human RCC4 cells expressing HIF1alpha and HIF2alpha at 20 uM after 48 hrs by RT-PCr analysis; type: ADME, cell-based; settings: rcc4, 48 h
[24] = as §1; type: functional, cell-based; remark: listed apart in the source
[25] = molecular target: Hypoxia-inducible factor 1-alpha (Homo sapiens) (UniProt Q16665); assay: Inhibition of HIF1alpha in human RCC4 cells coexpressing HIF2alpha assessed as decrease in carbonic anhydrase 9 mRNA expression at 20 uM after 48 hrs by RT-PCR analysis; type: cell-based
[26] = molecular target: Hypoxia-inducible factor 1-alpha (Homo sapiens) (UniProt Q16665); assay: Inhibition of HIF1alpha in human SK-RC-28 cells assessed as reduction in carbonic anhydrase 9 expression at 20 uM after 48 hrs by RT-PCR analysis; type: cell-based
[27] = Downregulation of HIF1alpha mRNA expression in human SK-RC-28 cells at 20 uM after 48 hrs by RT-PCR analysis; type: functional, cell-based
786-0 [28] = assay: Downregulation of carbonic anhydrase 9 expression in human 786-0 cells at 20 uM after 48 hrs by RT-PCR analysis; type: functional, cell-based
[29] = molecular target: T2, Hypoxia inducible factors; HIF-1-alpha, HIF-2-alpha (Homo sapiens) (UniProt Q16665+Q99814); assay: Inhibition of HIF1alpha/2alpha in human RCC4 cells assessed as reduction in VEGFA mRNA expression at 20 uM after 48 hrs by RT-PCR analysis; type: cell-based
[30] = molecular target: T1, Endothelial PAS domain-containing protein 1; assay: Inhibition of HIF2alpha in human 786-0 cells expressing truncated HIF1alpha assessed as reduction in luciferase activity after 24 hrs by reporter gene assay; type: cell-based
786-0 [31] = assay: Inhibition of HIF-mediated VEGFA protein expression in serum deprived human 786-0 cells at 20 uM after 48 hrs relative to control; type: cell-based
[32] = molecular target: T1, Endothelial PAS domain-containing protein 1; assay: Inhibition of HIF2alpha in human 786-0 cells assessed as reduction in GLUT1 mRNA expression at 20 uM after 48 hrs by RT-PCR analysis; type: cell-based
[33] = molecular target: T1, Endothelial PAS domain-containing protein 1; assay: Inhibition of HIF2alpha in human 786-0 cells assessed as reduction in TGFalpha mRNA expression at 20 uM after 48 hrs by RT-PCR analysis; type: cell-based
[34] = molecular target: Hypoxia-inducible factor 1-alpha (Homo sapiens) (UniProt Q16665); assay: Inhibition of HIF1alpha in human SK-RC-28 cells assessed as reduction in VEGFA expression at 79 uM after 48 hrs by RT-PCR analysis; type: cell-based
[35] = molecular target: T1, Endothelial PAS domain-containing protein 1; assay: Inhibition of HIF2alpha in human 786-0 cells assessed as reduction in TGFalpha mRNA expression at 79 uM after 48 hrs by RT-PCR analysis; type: cell-based
[36] = Downregulation of HIF1alpha mRNA expression in human SK-RC-28 cells at 79 uM after 48 hrs by RT-PCR analysis; type: functional, cell-based
[37] = molecular target: T1, Endothelial PAS domain-containing protein 1; assay: Inhibition of HIF2alpha in human RCC4 cells coexpressing HIF1alpha assessed as reduction in TGFalpha mRNA expression at 79 uM after 48 hrs by RT-PCR analysis; type: cell-based
[38] = molecular target: Hypoxia-inducible factor 1-alpha (Homo sapiens) (UniProt Q16665); assay: Inhibition of HIF1alpha in human SK-RC-28 cells assessed as reduction in carbonic anhydrase expression at 79 uM after 48 hrs by RT-PCR analysis; type: cell-based
786-0 [39] = assay: Downregulation of HIF1alpha mRNA expression in human 786-0 cells at 79 uM after 48 hrs by RT-PCR analysis; type: functional, cell-based
[40] = molecular target: T1, Endothelial PAS domain-containing protein 1; assay: Inhibition of HIF2alpha in human 786-0 cells assessed as reduction in VEGFA mRNA expression at 79 uM after 48 hrs by RT-PCR analysis; type: cell-based
[41] = Downregulation of TGFalpha mRNA expression in human SK-RC-28 cells at 79 uM after 48 hrs by RT-PCR analysis; type: functional, cell-based
786-0 [42] = assay: Upregulation of carbonic anhydrase 9 mRNA expression in human 786-0 cells at 79 uM after 48 hrs by RT-PCR analysis; type: ADME, cell-based; settings: 786-0, 48 h
[43] = Downregulation of HIF1alpha mRNA expression in human RCC4 cells at 79 uM after 48 hrs by RT-PCR analysis; type: functional, cell-based
[44] = Downregulation of HIF2alpha mRNA expression in human RCC4 cells at 79 uM after 48 hrs by RT-PCR analysis; type: functional, cell-based
[45] = Downregulation of HIF2alpha mRNA expression in human SK-RC-28 cells at 79 uM after 48 hrs by RT-PCR analysis; type: functional, cell-based
[46] = molecular target: T1, Endothelial PAS domain-containing protein 1; assay: Inhibition of HIF2alpha in human RCC4 cells coexpressing HIF1alpha assessed as reduction in CCND1 mRNA expression at 79 uM after 48 hrs by RT-PCR analysis; type: cell-based
786-0 [47] = assay: Induction of total protein expression in serum deprived human 786-0 cells at 79 uM after 48 hrs relative to control; type: cell-based; settings: 786-0, 48 h
[48] = molecular target: T1, Endothelial PAS domain-containing protein 1; assay: Inhibition of HIF2alpha in human 786-0 cells assessed as reduction in GLUT1 mRNA expression at 79 uM after 48 hrs by RT-PCR analysis; type: cell-based
[49] = molecular target: T1, Endothelial PAS domain-containing protein 1; assay: Inhibition of HIF2alpha in human RCC4 cells coexpressing HIF1alpha assessed as reduction in GLUT1 mRNA expression at 79 uM after 48 hrs by RT-PCR analysis; type: cell-based
[50] = Downregulation of CCND1 mRNA expression in human SK-RC-28 cells at 79 uM after 48 hrs by RT-PCR analysis; type: functional, cell-based
786-0 [51] = assay: Downregulation of HIF2alpha mRNA expression in human 786-0 cells at 79 uM after 48 hrs by RT-PCR analysis; type: functional, cell-based
[52] = Downregulation of GLUT1 mRNA expression in human SK-RC-28 cells at 79 uM after 48 hrs by RT-PCR analysis; type: functional, cell-based
[53] = molecular target: Hypoxia-inducible factor 1-alpha (Homo sapiens) (UniProt Q16665); assay: Inhibition of HIF1alpha in human RCC4 cells coexpressing HIF2alpha assessed as decrease in carbonic anhydrase 9 mRNA expression at 79 uM after 48 hrs by RT-PCR analysis; type: cell-based
[54] = molecular target: T2, Hypoxia inducible factors; HIF-1-alpha, HIF-2-alpha (Homo sapiens); assay: Inhibition of HIF1alpha/2alpha in human RCC4 cells assessed as reduction in VEGFA mRNA expression at 79 uM after 48 hrs by RT-PCR analysis; type: cell-based
786-0 [55] = assay: Induction of HIF-mediated VEGFA expression in serum deprived human 786-0 cells at 79 uM after 48 hrs relative to control; type: cell-based
[56] = molecular target: T1, Endothelial PAS domain-containing protein 1; assay: Inhibition of HIF2alpha in human 786-0 cells assessed as reduction in CCND1 mRNA expression at 79 uM after 48 hrs by RT-PCR analysis; type: cell-based

Hypoxia-inducible factor 1-alpha (Homo sapiens), sequence (Q16665 whole entry, looked up, the tested form may be a part): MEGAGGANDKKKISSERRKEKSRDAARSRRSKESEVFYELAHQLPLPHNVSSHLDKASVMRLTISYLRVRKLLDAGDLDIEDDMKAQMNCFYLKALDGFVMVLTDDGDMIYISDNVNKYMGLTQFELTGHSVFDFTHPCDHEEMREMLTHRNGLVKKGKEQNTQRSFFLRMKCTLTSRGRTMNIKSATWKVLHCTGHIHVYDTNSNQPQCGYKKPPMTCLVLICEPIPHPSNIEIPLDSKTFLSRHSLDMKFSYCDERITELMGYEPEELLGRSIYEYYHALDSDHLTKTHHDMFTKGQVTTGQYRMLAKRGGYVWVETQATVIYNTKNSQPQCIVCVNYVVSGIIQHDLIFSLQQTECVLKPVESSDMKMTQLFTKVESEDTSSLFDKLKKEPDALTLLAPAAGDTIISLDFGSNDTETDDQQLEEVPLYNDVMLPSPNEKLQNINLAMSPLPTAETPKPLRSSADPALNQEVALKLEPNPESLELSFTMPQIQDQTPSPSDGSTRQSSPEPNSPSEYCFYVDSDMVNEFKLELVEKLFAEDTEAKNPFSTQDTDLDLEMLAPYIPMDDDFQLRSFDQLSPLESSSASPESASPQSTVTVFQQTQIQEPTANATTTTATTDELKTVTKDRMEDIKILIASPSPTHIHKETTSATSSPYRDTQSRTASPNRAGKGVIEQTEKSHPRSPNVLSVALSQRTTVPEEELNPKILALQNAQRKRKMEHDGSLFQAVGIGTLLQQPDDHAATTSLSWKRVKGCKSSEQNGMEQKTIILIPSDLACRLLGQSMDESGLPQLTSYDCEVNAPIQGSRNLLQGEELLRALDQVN
T1 sequence (Q99814 whole entry, the tested form may be a part): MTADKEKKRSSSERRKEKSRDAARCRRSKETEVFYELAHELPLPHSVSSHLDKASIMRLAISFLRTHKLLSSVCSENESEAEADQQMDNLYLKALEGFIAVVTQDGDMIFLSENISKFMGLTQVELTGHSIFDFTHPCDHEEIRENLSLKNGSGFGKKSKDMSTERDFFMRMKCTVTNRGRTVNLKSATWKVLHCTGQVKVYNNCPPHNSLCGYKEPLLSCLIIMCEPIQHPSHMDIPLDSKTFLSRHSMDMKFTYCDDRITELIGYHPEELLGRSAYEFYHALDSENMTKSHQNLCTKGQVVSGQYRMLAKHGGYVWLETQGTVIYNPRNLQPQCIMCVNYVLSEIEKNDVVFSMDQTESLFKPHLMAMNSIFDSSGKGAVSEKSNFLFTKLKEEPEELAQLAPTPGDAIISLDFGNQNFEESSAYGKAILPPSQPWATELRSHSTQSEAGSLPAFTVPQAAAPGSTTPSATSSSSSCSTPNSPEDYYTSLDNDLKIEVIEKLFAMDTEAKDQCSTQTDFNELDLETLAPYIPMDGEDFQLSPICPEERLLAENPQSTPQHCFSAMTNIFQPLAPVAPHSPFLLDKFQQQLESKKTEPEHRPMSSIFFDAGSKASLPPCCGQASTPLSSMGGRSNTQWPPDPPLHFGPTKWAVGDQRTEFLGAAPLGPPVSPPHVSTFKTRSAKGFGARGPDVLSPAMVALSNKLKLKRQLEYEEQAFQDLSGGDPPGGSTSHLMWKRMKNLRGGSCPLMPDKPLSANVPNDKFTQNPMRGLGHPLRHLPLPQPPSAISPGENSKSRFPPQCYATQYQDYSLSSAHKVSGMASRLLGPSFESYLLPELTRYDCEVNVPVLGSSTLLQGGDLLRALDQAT

SMILES: C#C[C@@H](O)/C=C/CCCCCCC#C[C@H](O)C#C/C=C/CC/C=C\CCCC/C=C\CCCCCCCCCCCCC/C=C/[C@@H](O)C#C [NEOPETROFORMYNE A]
- IC50 [1]: 27.5 µM
- inhibition [2]: Active
- inhibition [3]: Active
- Activity (786-0 [4]): Active
- inhibition [5]: Active
- Activity [6]: Active
- IC50 [7]: 35.1 µM
- Activity (786-0 [8]): Toxic
- Activity [9]: Active
- Activity [10]: Active
- inhibition [11]: Active
- Activity [12]: Active
- Activity [13]: Active
- Activity [14]: Toxic
- inhibition [15]: Active
- Activity (786-0 [16]): Active
- inhibition [17]: Active
- Activity [18]: Active
- IC50 (786-0 [19]): 14.4 µM
- Activity [20]: Active
- inhibition [21]: Active
- Activity (786-0 [22]): Toxic
- Activity [23]: Toxic
- Activity [24]: Active
- inhibition [25]: Active
- inhibition [26]: Active
- Activity [27]: Active
- Activity (786-0 [28]): Active
- inhibition [29]: Active
- EC50 [30]: 8.7 µM
- inhibition (786-0 [31]): Active
- inhibition [32]: Active
- inhibition [33]: Active

- inhibition [34]: inactive
- inhibition [35]: Active
- inhibition [37]: Active
- inhibition [38]: inactive
- inhibition [40]: Active
- inhibition [46]: Active
- inhibition [48]: Active
- inhibition [49]: Active
- inhibition [53]: Active
- EC50 [30]: 2.7 µM
- inhibition [54]: Active
- inhibition [56]: Active
SMILES: C/C=C(/C)C(=O)OCC1C2=C(C=CN1C=O)C(=O)C(C)=C(OC)C2=O (mixture of isomers)
- IC50 [1]: 26.3 µM
- Activity [36]: inactive
- Activity (786-0 [39]): Active
- Activity [41]: inactive
- Activity (786-0 [42]): Toxic
- IC50 [7]: 38.7 µM
- Activity [43]: Active
- Activity [44]: Active
- Activity [45]: inactive
- Activity (786-0 [47]): Toxic
- IC50 (786-0 [19]): 33.8 µM
- Activity [50]: inactive
- Activity (786-0 [51]): Active
- Activity [52]: inactive
- Activity (786-0 [55]): Active
